Measured values taken from patent publication US9974825B2, “Peptides Des-[Asp1]-[Ala1], angiotensin-(1-7) agonist and pharmaceutical compositions for the treatment of diseases” (UNIVERSIDADE FEDERAL DE MINAS GERAIS, priority 2008, dated 2018).

Assays:
[1] = system: aorta rings of Mas+/+ mice; assay: Vasorelaxation in phenylephrine-precontracted aorta rings of wild-type (Mas+/+) mice; assay type: cell-based, mice (C57/BI-6 and FVB/N); settings: both lineages C57/BI-6 and FVB/N, precontracted with fenilefrine 0.1 μM
Experimental: This example describes the vasodilating effect of Ala^1-Ang-(1-7), independently of the Mas receptor, on aorta rings of mice with genetic deletion of the Mas receptor (Mas−/−) and wild-type mice (Mas+/+) from two different lineages, C57/BI-6 and FVB/N.
The original rings of the descending thoracic aorta (2 mm), free from adipose tissue and connective tissue, were incubated in gasified solution (95% O2 and 5% CO2) of Krebs-Henseleit (mmol/L): NaCl 110.8, KCl 5.9, NaHCO3 25.0, MgSO4 1.07, CaCl2 2.49, NaH2PO4 2.33 and glucose 11.51, under a temperature of 37° C. and a 0.5 g tension, being equilibrated for 1 hour. The functional presence of endothelium was tested by its relaxing capacity produced by acetylcholine [ACh] (10 μM) on vessels precontracted with fenilefrine (0.3 μM). Only the vessels showing relaxation above 70% of extended contraction produced by fenilefrine were taken into account. […]
The aorta rings of mice Mas−/− and Mas+/+ from both lineages (C57/BI-6 and FVB/N) were precontracted to achieve the same tension level (approximately a 1.0 g tension) at a submaximum concentration of fenilefrine (0.1 μM). […] The vasodilating effects of Ala^1-Ang-(1-7) and Ang-(1-7) were expressed as a percentage of relaxation relative to the maximum contraction induced by fenilefrine. […]

[2] = molecular target: T1, angiotensin converter enzyme (ACE) (Rattus norvegicus, UniProt P47820); assay: Plasmatic ACE activity, fluorimetric method with Hip-His-Leu substrate; assay type: biochemical, Wistar rats; settings: Wistar rat plasma
T1 construct: from tissue; host or cells: plasma of Wistar rats
T1 sequence (P47820 36-1238 limits assumed): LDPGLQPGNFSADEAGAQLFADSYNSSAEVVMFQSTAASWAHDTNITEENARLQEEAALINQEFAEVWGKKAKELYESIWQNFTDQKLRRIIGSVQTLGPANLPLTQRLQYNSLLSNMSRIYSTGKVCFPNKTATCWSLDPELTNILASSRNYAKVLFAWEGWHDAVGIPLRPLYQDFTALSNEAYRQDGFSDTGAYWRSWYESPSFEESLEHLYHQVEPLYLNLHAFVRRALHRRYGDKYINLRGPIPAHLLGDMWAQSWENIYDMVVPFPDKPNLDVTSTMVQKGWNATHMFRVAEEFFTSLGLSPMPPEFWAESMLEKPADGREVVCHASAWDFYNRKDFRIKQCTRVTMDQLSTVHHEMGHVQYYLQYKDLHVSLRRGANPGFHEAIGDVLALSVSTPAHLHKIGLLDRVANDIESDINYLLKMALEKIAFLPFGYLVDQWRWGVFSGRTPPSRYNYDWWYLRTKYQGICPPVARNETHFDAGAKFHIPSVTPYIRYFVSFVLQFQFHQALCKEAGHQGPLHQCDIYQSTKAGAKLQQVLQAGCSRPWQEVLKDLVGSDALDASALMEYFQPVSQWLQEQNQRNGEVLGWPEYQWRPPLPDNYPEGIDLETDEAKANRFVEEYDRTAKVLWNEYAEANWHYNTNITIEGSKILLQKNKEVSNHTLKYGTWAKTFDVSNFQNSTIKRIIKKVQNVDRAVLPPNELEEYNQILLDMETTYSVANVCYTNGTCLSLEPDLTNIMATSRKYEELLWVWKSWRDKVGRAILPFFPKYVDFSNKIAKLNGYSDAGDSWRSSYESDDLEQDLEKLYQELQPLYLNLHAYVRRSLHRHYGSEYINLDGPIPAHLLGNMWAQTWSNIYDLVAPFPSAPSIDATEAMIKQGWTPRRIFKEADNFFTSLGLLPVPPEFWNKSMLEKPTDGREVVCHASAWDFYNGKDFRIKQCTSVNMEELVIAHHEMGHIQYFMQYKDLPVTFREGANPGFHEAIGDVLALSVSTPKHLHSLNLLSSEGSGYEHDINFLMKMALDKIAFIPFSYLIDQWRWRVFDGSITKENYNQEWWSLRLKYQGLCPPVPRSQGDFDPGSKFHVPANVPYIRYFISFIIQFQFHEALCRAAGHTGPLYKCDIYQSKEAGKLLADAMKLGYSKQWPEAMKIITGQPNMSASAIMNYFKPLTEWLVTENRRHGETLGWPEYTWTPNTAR
Experimental: The plasmatic activity of ACE was measured by the fluorimetric method using Hip-His-Leu as substrate, as previously described (Santos, R. A. S. et al., Hypertension, 7:244-52, (1985)). Plasma aliquots (10 μL) of Wistar rats were incubated with a […] solution containing a 1 mM substrate (Hip-His-Leu) and 0.4 M of sodium borate, 0.9 M NaCl (pH=8.3) for 15 minutes at 37° C. The reaction was halted by adding 1.2 mL of NaOH at 0.34 M and […] of orthoftaldehyde (20 mg/mL in methanol). After 10 minutes at environment temperature, […] of HCl at 3 N was added. Later on, after a 5-minute 800×g centrifugation, the floating solution fluorescence was measured (a 365 nm excitation and a 495 nm emission). The blank was prepared by inverting the addition order of plasma and NaOH. A 0.5 to 20 nmol curve, containing the product (His-Leu) resulting of the substrate break (Hip-His-Leu) by ACE plasmatic activity, was prepared in each assay. In order to test the inhibition effect of ACE by the PEPTIDEs Ang-(1-7) and Ala^1-Ang-(1-7), 3.3×10^−7 or 3.3×10^−6 M of each PEPTIDE was added before the plasma addition. […] The percentage of enzymatic activity inhibition was estimated in function of the maximum activity obtained.

ACE inhibition ([2]; peptide 3.3×10^−6 M) | ACE inhibition ([2]; peptide 3.3×10^−7 M) | Substance | vasorelaxation (relaxation relative to maximum contraction induced by fenilefrine) [1]
85.8% | 42.4% | Asp^1-Arg^2-Val^3-Tyr^4-Ile^5-His^6-Pro^7 [Ang-(1-7)] | produced vasorelaxation
98.3% | 76.3% | Ala^1-Arg^2-Val^3-Tyr^4-Ile^5-His^6-Pro^7 [Ala^1-Ang-(1-7)] | produced vasorelaxation
